We go through 3 compounds from ChEMBL document CHEMBL5550214, “Expanding Structure-Activity Relationships of Human Urotensin II Peptide Analogues: A Proposed Key Role of the N-Terminal Region for Novel Urotensin II Receptor Modulators” (J Med Chem, 2024).

Calls of active or inactive are those of the source. The rule behind the calls is not given here.

Test [1] concerns the target T1, Urotensin-2 receptor (Homo sapiens) (UniProt Q9UKP6).
T1 sequence (whole entry): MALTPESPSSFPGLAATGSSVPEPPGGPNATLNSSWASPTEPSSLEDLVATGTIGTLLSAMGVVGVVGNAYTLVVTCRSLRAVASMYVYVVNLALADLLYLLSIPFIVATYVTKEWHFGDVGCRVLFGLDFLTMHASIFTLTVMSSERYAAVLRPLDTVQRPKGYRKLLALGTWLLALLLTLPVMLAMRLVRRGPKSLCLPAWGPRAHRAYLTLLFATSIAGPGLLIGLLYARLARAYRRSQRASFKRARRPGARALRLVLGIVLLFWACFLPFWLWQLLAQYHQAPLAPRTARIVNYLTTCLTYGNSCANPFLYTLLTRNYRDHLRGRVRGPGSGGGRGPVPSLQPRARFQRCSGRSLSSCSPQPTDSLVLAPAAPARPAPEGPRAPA
The test can be described thus: Modulation of human UTR stably expressed in HEK293 cells assessed as increase in Ca2+ level at 0.1 to 100 nM by Fura 2-AM dye based calcium mobilization assay. The format is functional, cell-based. The settings on record: dose 0.1-100 nM.

The subject of test [2] is Aortic ring. The test can be described thus: Induction of contraction in Albino Wistar rat aortic ring assessed as Emax of [Ala1]U-II at 0.1 uM incubated for 30 mins in presence of [Ala1]U-II (reference value: 391.6 +/- 38.83 dyne/mg). The format is functional, Aorta. The settings on record: 0.5 h.
Test [3] concerns Aortic ring. The test can be described thus: Induction of contraction in Albino Wistar rat aortic ring assessed as Emax of hU-II at 1 uM incubated for 30 mins in presence of hU-II (reference value: 279.9 +/- 11.02 dyne/mg). The format is functional, Aorta. The conditions noted are these: 0.5 h.
The subject of test [4] is Aortic ring. Put plainly: Induction of contraction in Albino Wistar rat aortic ring at 1 to 30 nM. The format is functional, tissue-based. The conditions noted are these: Aorta, dose 1-30 nM.
Test [5] has as its system Aortic ring. Put plainly: Induction of contraction in Albino Wistar rat aortic ring assessed as Emax of hU-II at 10 uM incubated for 30 mins in presence of hU-II (reference value: 251.4 +/- 15.43 dyne/mg). The settings on record: 0.5 h. Type of test: functional, Aorta.
Test [6] has as its system Aortic ring. Put plainly: Induction of contraction in Albino Wistar rat aortic ring assessed as Emax of [Ala1]U-II at 10 uM incubated for 30 mins in presence of [Ala1]U-II (reference value: 220.3 +/- 17.48 dyne/mg). The conditions noted are these: 0.5 h. Type of test: functional, Aorta.
Test [7] relates to Aortic ring. Put plainly: Induction of contraction in Albino Wistar rat aortic ring assessed as Emax of U-II(4-11) at 10 uM incubated for 30 mins in presence of U-II(4-11) (reference value: 159.8 +/- 7.39 dyne/mg). Type of test: functional, Aorta. The conditions noted are these: 0.5 h.
The test system of test [8] is Aortic ring. Put plainly: Induction of contraction in Albino Wistar rat aortic ring assessed as Emax of hU-II at 0.1 uM incubated for 30 mins in presence of hU-II (reference value: 238.4 +/- 9.53 dyne/mg). Type of test: functional, Aorta. The conditions noted are these: 0.5 h.
The test system of test [9] is Aortic ring. The test can be described thus: Induction of contraction in Albino Wistar rat aortic ring assessed as Emax of U-II(4-11) at 0.1 uM incubated for 30 mins in presence of U-II(4-11) (reference value: 152.4 +/- 5.1 dyne/mg). The conditions noted are these: 0.5 h. The format is functional, Aorta.
The test system of test [10] is Aortic ring. Put plainly: Induction of contraction in Albino Wistar rat aortic ring assessed as Emax of [Ala1]U-II at 1 uM incubated for 30 mins in presence of [Ala1]U-II (reference value: 323 +/- 30.45 dyne/mg). The format is functional, Aorta. The settings on record: 0.5 h.
Test [11] has as its system Aortic ring. Put plainly: Induction of contraction in Albino Wistar rat aortic ring assessed as Emax of U-II(4-11) at 1 uM incubated for 30 mins in presence of U-II(4-11) (reference value: 242.6 +/- 20.63 dyne/mg). Type of test: functional, Aorta. The settings on record: 0.5 h.
For test [12], the system named is Aortic ring. Put plainly: Induction of contraction in Albino Wistar rat aortic ring assessed as Emax of U-II(4-11) at 1 uM incubated for 30 mins in presence of U-II(4-11) (reference value: 152.4 +/- 5.1 dyne/mg). The format is functional, Aorta. The settings on record: 0.5 h.
For test [13], the system named is Aortic ring. Put plainly: Induction of contraction in Albino Wistar rat aortic ring assessed as Emax of U-II(4-11) at 10 uM incubated for 30 mins in presence of U-II(4-11) (reference value: 242.6 +/- 20.63 dyne/mg). The format is functional, Aorta. The conditions noted are these: 0.5 h.
Test [14] deals with Aortic ring. Put plainly: Induction of contraction in Albino Wistar rat aortic ring assessed as Emax of [Ala1]U-II at 1 uM incubated for 30 mins in presence of [Ala1]U-II (reference value: 391.6 +/- 38.83 dyne/mg). Type of test: functional, Aorta. The conditions noted are these: 0.5 h.
The test system of test [15] is Aortic ring. The test can be described thus: Induction of contraction in Albino Wistar rat aortic ring assessed as Emax of hU-II at 1 uM incubated for 30 mins in presence of hU-II (reference value: 238.4 +/- 9.53 dyne/mg). The format is functional, Aorta. The settings on record: 0.5 h.
In test [16] the test system is Aortic ring. Put plainly: Induction of contraction in Albino Wistar rat aortic ring assessed as Emax of [Ala1]U-II at 0.1 uM incubated for 30 mins in presence of [Ala1]U-II (reference value: 153.3 +/- 10.75 dyne/mg). Type of test: functional, Aorta. The conditions noted are these: 0.5 h.
In test [17] the test system is Aortic ring. The test can be described thus: Induction of contraction in Albino Wistar rat aortic ring assessed as Emax of [Ala1]U-II at 10 uM incubated for 30 mins in presence of [Ala1]U-II (reference value: 323 +/- 30.45 dyne/mg). Type of test: functional, Aorta. The settings on record: 0.5 h.
The test system of test [18] is Aortic ring. The test can be described thus: Induction of contraction in Albino Wistar rat aortic ring assessed as Emax of hU-II at 0.1 uM incubated for 30 mins in presence of hU-II (reference value: 214.5 +/- 10.51 dyne/mg). The format is functional, Aorta. The settings on record: 0.5 h.
For test [19], the system named is Aortic ring. The test can be described thus: Induction of contraction in Albino Wistar rat aortic ring assessed as Emax of hU-II at 10 uM incubated for 30 mins in presence of hU-II (reference value: 279.9 +/- 11.02 dyne/mg). Type of test: functional, Aorta. The conditions noted are these: 0.5 h.
In test [20] the test system is Aortic ring. Put plainly: Induction of contraction in Albino Wistar rat aortic ring assessed as Emax of U-II(4-11) at 0.1 uM incubated for 30 mins in presence of U-II(4-11) (reference value: 159.8 +/- 7.3 dyne/mg). The format is functional, Aorta. The conditions noted are these: 0.5 h.
The subject of test [21] is Aortic ring. The test can be described thus: Induction of contraction in Albino Wistar rat aortic ring assessed as Emax of hU-II at 0.1 uM incubated for 30 mins in presence of hU-II (reference value: 224.8 +/- 11.71 dyne/mg). Type of test: functional, Aorta. The settings on record: 0.5 h.
Test [22] deals with Aortic ring. The test can be described thus: Induction of contraction in Albino Wistar rat aortic ring assessed as Emax of [Ala1]U-II at 10 uM incubated for 30 mins in presence of [Ala1]U-II (reference value: 153.3 +/- 10.75 dyne/mg). Type of test: functional, Aorta. The conditions noted are these: 0.5 h.
Test [23] relates to Aortic ring. The test can be described thus: Induction of contraction in Albino Wistar rat aortic ring assessed as Emax of [Ala1]U-II at 1 uM incubated for 30 mins in presence of [Ala1]U-II (reference value: 308.1 +/- 21.4 dyne/mg). Type of test: functional, Aorta. The settings on record: 0.5 h.
Test [24] deals with Aortic ring. The test can be described thus: Induction of contraction in Albino Wistar rat aortic ring assessed as Emax of U-II(4-11) at 1 uM incubated for 30 mins in presence of U-II(4-11) (reference value: 159.8 +/- 7.39 dyne/mg). The format is functional, Aorta. The conditions noted are these: 0.5 h.
Test [25] deals with Aortic ring. Put plainly: Induction of contraction in Albino Wistar rat aortic ring assessed as Emax of hU-II at 10 uM incubated for 30 mins in presence of hU-II (reference value: 238.4 +/- 9.53 dyne/mg). Type of test: functional, Aorta. The settings on record: 0.5 h.
Test [26] deals with Aortic ring. The test can be described thus: Induction of contraction in Albino Wistar rat aortic ring assessed as Emax of [Ala1]U-II at 0.1 uM incubated for 30 mins in presence of [Ala1]U-II (reference value: 220.3 +/- 17.48 dyne/mg). The format is functional, Aorta. The settings on record: 0.5 h.
Test [27] concerns Aortic ring. The test can be described thus: Induction of contraction in Albino Wistar rat aortic ring assessed as Emax of hU-II at 1 uM incubated for 30 mins in presence of hU-II (reference value: 214.5 +/- 10.51 dyne/mg). The format is functional, Aorta. The settings on record: 0.5 h.
The test system of test [28] is Aortic ring. The test can be described thus: Induction of contraction in Albino Wistar rat aortic ring assessed as Emax of U-II(4-11) at 0.1 uM incubated for 30 mins in presence of U-II(4-11) (reference value: 242.6 +/- 20.63 dyne/mg). The conditions noted are these: 0.5 h. The format is functional, Aorta.
Test [29] relates to Aortic ring. The test can be described thus: Induction of contraction in Albino Wistar rat aortic ring assessed as Emax of U-II(4-11) at 10 uM incubated for 30 mins in presence of U-II(4-11) (reference value: 159.8 +/- 7.3 dyne/mg). The format is functional, Aorta. The conditions noted are these: 0.5 h.

Regarding `CC(C)[C@H](NC(=O)[C@@H]1CSSC(C)(C)[C@H](NC(=O)[C@H](CC(=O)O)NC(=O)[C@@H]2CCCN2C(=O)[C@@H](NC(=O)[C@@H](N)CCO)[C@@H](C)O)C(=O)N[C@@H](Cc2ccccc2)C(=O)N[C@H](Cc2c[nH]c3ccccc23)C(=O)N[C@@H](CCCN)C(=O)N[C@@H](Cc2ccc(O)cc2)C(=O)N1)C(=O)O`, the result in test [1] and in test [4] was inactive. Also, the Emax in test [2] came to 251.5 dyn/mg; in test [3], 188.6 dyn/mg; in test [5], 181.9 dyn/mg; in [6], 148.9 dyn/mg; in test [7] it was 111.3 dyn/mg; in test [8], 179.2 dyn/mg. Moreover, the Emax in test [9] came to 120.9 dyn/mg; in test [10], 119.1 dyn/mg; in test [11] it was 93.38 dyn/mg.

Take `CC(C)[C@H](NC(=O)[C@@H]1CSSC(C)(C)[C@H](NC(=O)[C@H](C)NC(=O)[C@@H]2CCCN2C(=O)[C@@H](NC(=O)[C@H](C)N)[C@@H](C)O)C(=O)N[C@@H](Cc2ccccc2)C(=O)N[C@H](Cc2c[nH]c3ccccc23)C(=O)N[C@@H](CCCN)C(=O)N[C@@H](Cc2ccc(O)cc2)C(=O)N1)C(=O)O`: the Emax was 502.2 dyn/mg in test [12]; 261.8 dyn/mg in [13]; 593 dyn/mg in [14]; 231.1 dyn/mg in test [15]; 406.4 dyn/mg in [16]; 457.6 dyn/mg in [17]. Moreover, the Emax in test [18] is listed as 386.5 dyn/mg; in test [19], 126.2 dyn/mg; in test [20], 354.4 dyn/mg. Moreover, in test [4], the result was inactive.

For the compound `CC(C)[C@H](NC(=O)[C@@H]1CSSC(C)(C)[C@H](NC(=O)[C@H](CC(=O)O)NC(=O)[C@@H]2CCCN2C(=O)[C@@H](NC(=O)[C@H](C)N)[C@@H](C)O)C(=O)N[C@@H](Cc2ccccc2)C(=O)N[C@H](Cc2c[nH]c3ccccc23)C(=O)N[C@@H](CCCN)C(=O)N[C@@H](Cc2ccc(O)cc2)C(=O)N1)C(=O)O`, the outcome in [1] (filed as modulator) was Active. Further, the Emax in [21] is on record as 264.3 dyn/mg; in test [22], 285 dyn/mg; in [23], 121.9 dyn/mg; in test [24], 248.2 dyn/mg; in test [25], 320.8 dyn/mg; in test [26], 373.5 dyn/mg. Also, the Emax in test [27] is on record as 315.6 dyn/mg; in [28], 263 dyn/mg; in test [29], 541.8 dyn/mg. In addition, the result in test [4] was inactive.
